Experiments:
[1] = system: waterhemp; test: Test C preemergence; type: in vivo, Amaranthus rudis; details: preemergence
Outline: (§1)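 Rated visually on 0–100 (100 = complete control) after 13–15 days under glass. Treatments went onto freshly seeded loam/sand soil or onto emerged plants at the 1- to 4-leaf stage, using a surfactant-containing solvent formulation.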

[2] = system: soybean; test: Test C postemergence; type: in vivo, Glycine max
Outline: as §1

[3] = system: galium; test: Test C postemergence; type: in vivo, Galium aparine
Outline: as §1

[4] = system: oilseed rape; test: Test C preemergence; type: in vivo, Brassica napus; details: preemergence
Outline: as §1

[5] = system: galium; test: Test C preemergence; type: in vivo, Galium aparine
Outline: as §1

[6] = system: pigweed; test: Test A postemergence; type: in vivo, Amaranthus retroflexus; details: 0 to 100 scale where 0 is no effect and 100 is complete control
Outline: (§2)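 Pre- and postemergence greenhouse screen. Soil: loam + sand. Spray carrier: solvent mixture, non-phytotoxic, with surfactant. Post timing at 1–2 leaves, height 2–10 cm. Readout: visual injury on a 0–100 scale roughly 10 days after application, untreated plants as reference.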

[7] = system: soybean; test: Test C preemergence; type: in vivo, Glycine max; details: preemergence
Outline: as §1

[8] = system: chickweed; test: Test C postemergence; type: in vivo, Stellaria media
Outline: as §1

[9] = system: velvetleaf; test: Test C postemergence; type: in vivo, Abutilon theophrasti
Outline: as §1

[10] = system: barnyardgrass; test: Test C preemergence; type: in vivo, Echinochloa crus-galli
Outline: as §1

[11] = system: giant foxtail; test: Test A preemergence; type: in vivo, Setaria faberii; details: 0 to 100 scale where 0 is no effect and 100 is complete control
Outline: as §2

[12] = system: barnyardgrass; test: Test A postemergence; type: in vivo, Echinochloa crus-galli; details: 0 to 100 scale where 0 is no effect and 100 is complete control
Outline: as §2

[13] = system: johnsongrass; test: Test C postemergence; type: in vivo, Sorghum halepense
Outline: as §1

[14] = system: morningglory; test: Test C preemergence; type: in vivo, Ipomoea coccinea; details: preemergence
Outline: as §1

[15] = system: barnyardgrass; test: Test B flooded paddy test; type: in vivo, Echinochloa crus-galli; details: Flood, 250 g ai/ha, 0 to 100 scale where 0 is no effect and 100 is complete control
Outline: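 Post-emergence paddy-water application at the 2-leaf stage, with 3 cm flood kept for the whole test. Response was judged visually relative to controls after 13 to 15 greenhouse days, 0 indicating no effect and 100 complete control.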

[16] = 16 g ai/ha, scale 0 to 100 (0 no effect, 100 complete control)
[17] = 62 g ai/ha, scale 0 (no effect) to 100 (complete control)
[18] = 125 g ai/ha, scale 0 (no effect) to 100 (complete control)
[19] = 16 g ai/ha, postemergence, 0 is no effect, 100 is complete control
[20] = 125 g ai/ha, postemergence, visual rating, scale 0 to 100 (0 no effect, 100 complete control)
[21] = Postemergence, 62 g ai/ha, scale 0 to 100 (0 no effect, 100 complete control)
[22] = 16 g ai/ha, preemergence, scale 0 to 100 (0 no effect, 100 complete control)
[23] = 62 g ai/ha, preemergence, scale 0 (no effect) to 100 (complete control)
[24] = 125 g ai/ha, preemergence, scale 0 (no effect) to 100 (complete control)
[25] = Preemergence, 31 g ai/ha, scale 0 to 100, 0 no effect, 100 complete control

## Cc1cnc(Oc2cccc(C#N)c2-n2cc(I)cn2)nc1 [Compound 136]
[1]; [16]
  Waterhemp plant response rating: 0
[1]; [17]
  Waterhemp plant response rating: 75
[1]; [18]
  Waterhemp plant response rating: 100
[2]; [19]
  Plant response rating (0 to 100), Soybean: 35
[2]; [20]
  Plant response rating, Soybean: 90
[2]; [21]
  Plant response rating, Soybean: 75
[3]; [19]
  Plant response rating (0 to 100), Galium: 20
[3]; [20]
  Plant response rating, Galium: 60
[3]; [21]
  Plant response rating, Galium: 55
[4]; [16]
  Oilseed Rape plant response rating: 0
[4]; [17]
  Oilseed Rape plant response rating: 50
[4]; [18]
  Oilseed Rape plant response rating: 100
[5]; [22]
  Galium plant response rating: 0
[5]; [23]
  Galium plant response rating: 30
[5]; [24]
  Galium plant response rating: 85
[5]; [25]
  Plant response rating, Galium: 0
[6]; 125 g ai/ha
  Pigweed plant response rating: 80
[6]; 500 g ai/ha
  Plant response rating, Pigweed: 100
[7]; [16]
  Soybean plant response rating: 20
[7]; [17]
  Soybean plant response rating: 50
[7]; [18]
  Soybean plant response rating: 85
[8]; [19]
  Plant response rating (0 to 100), Chickweed: 5
[8]; [20]
  Plant response rating, Chickweed: 60
[8]; [21]
  Plant response rating, Chickweed: 5
[9]; [19]
  Plant response rating (0 to 100), Velvetleaf: 10
[9]; [20]
  Plant response rating, Velvetleaf: 25
[9]; [21]
  Plant response rating, Velvetleaf: 10
[10]; [22]
  Barnyardgrass plant response rating: 0
[10]; [23]
  Barnyardgrass plant response rating: 60
[10]; [24]
  Barnyardgrass plant response rating: 100
[10]; [25]
  Plant response rating, Barnyardgrass: 10
[11]; 125 g ai/ha
  Plant response rating, Foxtail, Giant: 60
[11]; 500 g ai/ha
  Foxtail, Giant plant response rating: 100
[12]; 125 g ai/ha
  Barnyardgrass plant response rating: 30
[12]; 500 g ai/ha
  Plant response rating, Barnyardgrass: 90
[13]; [19]
  Plant response rating (0 to 100), Johnsongrass: 0
[13]; [21]
  Plant response rating, Johnsongrass: 0
[14]; [16]
  Morningglory plant response rating: 20
[14]; [17]
  Morningglory plant response rating: 10
[14]; [18]
  Morningglory plant response rating: 60
[15]
  Plant response rating, Barnyardgrass: 20

## FC(F)(F)COc1cnn(-c2ccccc2Oc2ncc(Cl)cn2)c1 [Compound 138, 5-chloro-2-[2-[4-(2,2,2-trifluoroethoxy)-1H-pyrazol-1-yl]phenoxy]pyrimidine]
[1]; Amaranthus tuberculatus, pre-emergence, 16 g ai/ha, scale 0 to 100 (0 no effect, 100 complete control), read-out: Waterhemp plant response rating
  pest or weed control at 16 g/ha: 100%
[1]; Amaranthus tuberculatus, pre-emergence, 62 g ai/ha, scale 0 (no effect) to 100 (complete control), read-out: Waterhemp plant response rating
  pest or weed control at 62 g/ha: 100%
[1]; Amaranthus tuberculatus, pre-emergence, 125 g ai/ha, scale 0 (no effect) to 100 (complete control), read-out: Waterhemp plant response rating
  pest or weed control at 125 g/ha: 100%
[2]; Glycine max, post-emergence, 16 g ai/ha, postemergence, 0 is no effect, 100 is complete control
  Soybean plant response rating (crop injury, 0-100 scale) at 16 g/ha: 40%
[2]; Glycine max, post-emergence, 125 g ai/ha, postemergence, visual rating, scale 0 to 100 (0 no effect, 100 complete control), read-out: Plant response rating, Soybean
  Soybean plant response rating (crop injury, 0-100 scale) at 125 g/ha: 95%
[2]; Glycine max, post-emergence, Postemergence, 62 g ai/ha, scale 0 to 100 (0 no effect, 100 complete control)
  Soybean plant response rating (crop injury, 0-100 scale) at 62 g/ha: 65%
[3]; Galium, post-emergence, 16 g ai/ha, postemergence, 0 is no effect, 100 is complete control, read-out: Plant response rating (0 to 100), Galium
  pest or weed control at 16 g/ha: 50%
[3]; Galium, post-emergence, 125 g ai/ha, postemergence, visual rating, scale 0 to 100 (0 no effect, 100 complete control), read-out: Plant response rating, Galium
  pest or weed control at 125 g/ha: 85%
[3]; Galium, post-emergence, Postemergence, 62 g ai/ha, scale 0 to 100 (0 no effect, 100 complete control), read-out: Plant response rating, Galium
  pest or weed control at 62 g/ha: 65%
[4]; Brassica napus, pre-emergence, 16 g ai/ha, scale 0 to 100 (0 no effect, 100 complete control), read-out: Oilseed Rape plant response rating
  plant injury at 16 g/ha: 80%
[4]; Brassica napus, pre-emergence, 62 g ai/ha, scale 0 (no effect) to 100 (complete control), read-out: Oilseed Rape plant response rating
  plant injury at 62 g/ha: 100%
[4]; Brassica napus, pre-emergence, 125 g ai/ha, scale 0 (no effect) to 100 (complete control), read-out: Oilseed Rape plant response rating
  plant injury at 125 g/ha: 100%
[5]; Galium, pre-emergence, 16 g ai/ha, preemergence, scale 0 to 100 (0 no effect, 100 complete control), read-out: Galium plant response rating
  pest or weed control at 16 g/ha: 90%
[5]; Galium, pre-emergence, 62 g ai/ha, preemergence, scale 0 (no effect) to 100 (complete control), read-out: Galium plant response rating
  pest or weed control at 62 g/ha: 90%
[5]; Galium, pre-emergence, 125 g ai/ha, preemergence, scale 0 (no effect) to 100 (complete control), read-out: Galium plant response rating
  pest or weed control at 125 g/ha: 100%
[5]; Galium, pre-emergence, Preemergence, 31 g ai/ha, scale 0 to 100, 0 no effect, 100 complete control, read-out: Plant response rating, Galium
  pest or weed control at 31 g/ha: 90%
[6]; Amaranthus retroflexus, post-emergence, 500 g ai/ha, read-out: Plant response rating, Pigweed
  pest or weed control at 500 g/ha: 100%
[6]; Amaranthus retroflexus, post-emergence, 240 h, 125 g ai/ha, read-out: Pigweed plant response rating
  pest or weed control at 125 g/ha: 100%
[7]; Glycine max, pre-emergence, 16 g ai/ha, scale 0 to 100 (0 no effect, 100 complete control), read-out: Soybean plant response rating
  plant injury at 16 g/ha: 20%
[7]; Glycine max, pre-emergence, 62 g ai/ha, scale 0 (no effect) to 100 (complete control), read-out: Soybean plant response rating
  plant injury at 62 g/ha: 90%
[7]; Glycine max, pre-emergence, 125 g ai/ha, scale 0 (no effect) to 100 (complete control), read-out: Soybean plant response rating
  plant injury at 125 g/ha: 90%
[8]; Stellaria media, post-emergence, 16 g ai/ha, postemergence, 0 is no effect, 100 is complete control, read-out: Plant response rating (0 to 100), Chickweed
  pest or weed control at 16 g/ha: 5%
[8]; Stellaria media, post-emergence, 125 g ai/ha, postemergence, visual rating, scale 0 to 100 (0 no effect, 100 complete control), read-out: Plant response rating, Chickweed
  pest or weed control at 125 g/ha: 55%
[8]; Stellaria media, post-emergence, Postemergence, 62 g ai/ha, scale 0 to 100 (0 no effect, 100 complete control), read-out: Plant response rating, Chickweed
  pest or weed control at 62 g/ha: 50%
[9]; Abutilon theophrasti, post-emergence, 16 g ai/ha, postemergence, 0 is no effect, 100 is complete control, read-out: Plant response rating (0 to 100), Velvetleaf
  pest or weed control at 16 g/ha: 30%
[9]; Abutilon theophrasti, post-emergence, 125 g ai/ha, postemergence, visual rating, scale 0 to 100 (0 no effect, 100 complete control), read-out: Plant response rating, Velvetleaf
  pest or weed control at 125 g/ha: 55%
[9]; Abutilon theophrasti, post-emergence, Postemergence, 62 g ai/ha, scale 0 to 100 (0 no effect, 100 complete control), read-out: Plant response rating, Velvetleaf
  pest or weed control at 62 g/ha: 20%
[10]; Echinochloa crus-galli, pre-emergence, 16 g ai/ha, preemergence, scale 0 to 100 (0 no effect, 100 complete control), read-out: Barnyardgrass plant response rating
  pest or weed control at 16 g/ha: 10%
[10]; Echinochloa crus-galli, pre-emergence, 62 g ai/ha, preemergence, scale 0 (no effect) to 100 (complete control), read-out: Barnyardgrass plant response rating
  pest or weed control at 62 g/ha: 65%
[10]; Echinochloa crus-galli, pre-emergence, 125 g ai/ha, preemergence, scale 0 (no effect) to 100 (complete control), read-out: Barnyardgrass plant response rating
  pest or weed control at 125 g/ha: 95%
[10]; Echinochloa crus-galli, pre-emergence, Preemergence, 31 g ai/ha, scale 0 to 100, 0 no effect, 100 complete control, read-out: Plant response rating, Barnyardgrass
  pest or weed control at 31 g/ha: 25%
[11]; Setaria faberi, pre-emergence, 240 h, 125 g ai/ha, read-out: Plant response rating, Foxtail, Giant
  pest or weed control at 125 g/ha: 90%
[11]; Setaria faberi, pre-emergence, 240 h, 500 g ai/ha, read-out: Foxtail, Giant plant response rating
  pest or weed control at 500 g/ha: 100%
[12]; Echinochloa crus-galli, post-emergence, 240 h, 125 g ai/ha, read-out: Barnyardgrass plant response rating
  pest or weed control at 125 g/ha: 80%
[12]; Echinochloa crus-galli, post-emergence, 240 h, 500 g ai/ha, read-out: Plant response rating, Barnyardgrass
  pest or weed control at 500 g/ha: 100%
[13]; Sorghum halepense, post-emergence, 16 g ai/ha, postemergence, 0 is no effect, 100 is complete control, read-out: Plant response rating (0 to 100), Johnsongrass
  pest or weed control at 16 g/ha: 5%
[13]; Sorghum halepense, post-emergence, 125 g ai/ha, postemergence, visual rating, scale 0 to 100 (0 no effect, 100 complete control), read-out: Plant response rating, Johnsongrass
  pest or weed control at 125 g/ha: 10%
[13]; Sorghum halepense, post-emergence, Postemergence, 62 g ai/ha, scale 0 to 100 (0 no effect, 100 complete control), read-out: Plant response rating, Johnsongrass
  pest or weed control at 62 g/ha: 5%
[14]; Ipomoea, pre-emergence, 16 g ai/ha, scale 0 to 100 (0 no effect, 100 complete control), read-out: Morningglory plant response rating
  pest or weed control at 16 g/ha: 0%
[14]; Ipomoea, pre-emergence, 62 g ai/ha, scale 0 (no effect) to 100 (complete control), read-out: Morningglory plant response rating
  pest or weed control at 62 g/ha: 10%
[14]; Ipomoea, pre-emergence, 125 g ai/ha, scale 0 (no effect) to 100 (complete control), read-out: Morningglory plant response rating
  pest or weed control at 125 g/ha: 35%
[15]; Echinochloa crus-galli, read-out: Plant response rating, Barnyardgrass
  pest or weed control at 250 g/ha: 0%

Source: patent US9695155B2, “Herbicidal substituted pyrimidinyloxy benzene compounds” (E. I. DU PONT DE NEMOURS AND COMPANY, priority 2013, dated 2017)
